Measurements from a melting point compilation (Tetko et al.; mined from patent text by program, amines drawn as free bases though some values may be those of a salt).

First: Nc1ccc(Sc2ccccc2)cc1
Second: C1=Cc2ccccc2C2(CO2)c2ccccc21
The melting point of the first is higher: 99 °C for the first, 90 to 91 °C for the second.

Compared with `NS(=O)(=O)c1cnc(-c2cn(-c3nc(-c4ccc(Cl)cc4)cc(C(F)(F)F)n3)cn2)s1`, `NS(=O)(=O)c1ccc(-c2noc(-c3cnn4c(C(F)(F)F)cc(-c5ccc(C(F)(F)F)cc5)nc34)n2)cc1` is higher in melting point: 263 °C for the first, 275 °C for the second.

Compared with `OCc1cc(-c2ccc(Cl)c(Cl)c2)n(Cc2cccc(Cl)c2)n1`, `CS(=O)c1ccc(Oc2ccc(Cl)c(Cl)c2)nc1C(N)=O` (stereo not given) is higher in melting point: 95 °C for the first, 185 to 187 °C for the second.

First: COc1cc(COc2ccc(S(=O)(=O)c3ccc(C)nc3Nc3c(C)cc(C)cc3C)cc2)cc(OC)c1
Second: COc1ccc(C)cc1-c1ccc(S(=O)(=O)N2c3ccccc3CC2C(=O)NCc2ccc(C(=O)O)cc2)cc1 (stereo not given)
The melting point of the first is lower: 107 to 109 °C for the first, 153 to 165 °C for the second.

Compared with `CCCC[C@@]1(O)CCC[C@@]2(C)CC[C@@H]3C[C@@]21OC3(C)C`, `CCCCNC(=O)NC1CCNCC1` is higher in melting point: 90 to 92 °C for the first, 132 to 134 °C for the second.

First: CCN1C(=O)C(C)(C)C(=O)N(C)c2cc(CN(CCn3ccc4oc(C)cc4c3=O)Cc3ccnnc3)ccc21
Second: CN1C(=O)C2(COc3cc4c(cc32)OCCO4)c2c(C(=O)NCc3ccccn3)cccc21 (stereo not given)
The melting point of the first is lower: 137 to 141 °C for the first, 214 to 215 °C for the second.

Compared with `CCc1c(C)[nH]c(=O)c(N(C)C)c1Cc1cc(C)cc(C)c1`, `Cc1c(C)c2c(c(C)c1O)CCC(COc1ccc(CC3SC(=O)NC3=O)cc1)O2` (stereo not given) is lower in melting point: 229 to 230 °C for the first, 158 to 159 °C for the second.

Compared with `O=C(NCCCCCCO)OC1CCN(C(=O)Oc2ccc(Oc3ccccc3)cc2)CC1`, `O=C(CCCCCCOc1ccc(-c2ccccc2)cc1)NO` is higher in melting point: 69 to 72 °C for the first, 147 to 149 °C for the second.

First: CN(C)C(=N)CCCCCCCCCCCCC(=N)N(C)C
Second: CCSc1cc(C)nc(SCC)c1NC(=O)CCCCCSc1nc2ccccc2s1
The melting point of the first is higher: 209 °C for the first, 81 to 83 °C for the second.

Compared with `CCOC(=O)c1c(C)c(C(=O)C(C#N)C(=O)Nc2ccccc2)n(C)c1C` (stereo not given), `CCOC(=O)Cn1nnnc1C(=O)c1ccccc1` is lower in melting point: 164 to 166 °C for the first, 63 to 67 °C for the second.

First: CC(COc1c(-c2ccccc2)c(=O)oc2ccccc12)CN1CCOCC1 (stereo not given)
Second: Cn1c(=S)n(CCN2CCC(Nc3nc4ccccc4n3Cc3ccco3)CC2)c(=O)c2ccccc21
The melting point of the first is lower: 113 °C for the first, 188 °C for the second.

First: CCOC(=O)NCC1CO1 (stereo not given)
Second: CCOC(=O)c1c(O)ncnc1CC
The melting point of the first is lower: 75 to 78 °C for the first, 84.5 to 86 °C for the second.

Compared with `O=C1C(Cl)=C(Cl)C(=O)N1c1ccc(Oc2ccccc2)cc1`, `O=c1[nH]c2ccccc2n1Cc1ccc(OC(F)(F)F)cc1` is lower in melting point: 180 to 181 °C for the first, 145 to 148 °C for the second.

Compared with `CC(O)(CC(=O)O)CC(=O)O`, `CC(=O)CCc1cc(OC(C)=O)c(C(C)(C)C)cc1OC(C)=O` is lower in melting point: 108 °C for the first, 66.5 to 68 °C for the second.

First: Cc1cc(NC(=O)OC(C)(C)C)c([N+](=O)[O-])cc1C#Cc1ccccc1
Second: CC(C(=O)O)c1cccc(C(=O)c2ccccc2)c1[N+](=O)[O-] (stereo not given)
The melting point of the first is lower: 161 to 164 °C for the first, 177 to 179 °C for the second.

First: CCN(CC)C(=O)CCC(=O)Nc1ccc(C(=O)N2CCCCc3ccccc32)cc1
Second: CCCCCC(=O)OC(C)c1ccc(-c2ccc(C(=O)O)cc2)cc1 (single isomer, unassigned; (+))
The melting point of the first is higher: 165 to 167 °C for the first, 133 to 135 °C for the second.

First: COc1ccc(C[C@H](NC(=O)OCc2ccccc2)C(=O)O)cc1
Second: O=C(C=Cc1ccccc1)NCc1ccc(C(=O)O)cc1
The melting point of the first is lower: 106 to 108 °C for the first, 238 to 239 °C for the second.

First: CN1CCC(c2cccc3ccc(N)cc23)CC1
Second: c1ccc2c(c1)C[C@@H]1CCc3ccccc3[C@@H]1O2 (relative stereo)
The melting point of the first is higher: 170 to 171 °C for the first, 71 to 72 °C for the second.

First: Cn1cc(C2=C(c3cn(CCCN=[N+]=[N-])c4ccccc34)C(=O)NC2=O)c2ccccc21
Second: CS(=O)(=O)c1c2ccccc2c(C=O)c2ccccc12
The melting point of the first is higher: 222 to 224 °C for the first, 216 to 217 °C for the second.

First: CNS(=O)(=O)c1ccc(-c2coc3ccc(-c4nnc(C)o4)cc23)cc1
Second: Cc1nnc(-c2ccc3occ(-c4cnn(Cc5ccccc5F)c4)c3c2)o1
The melting point of the first is higher: 203 to 204 °C for the first, 142 to 143 °C for the second.

First: COC(=O)c1c(F)c(F)c(NCc2ccccc2)c(F)c1F
Second: N#Cc1ccc(NCc2ccccc2)nc1
The melting point of the first is lower: 96 to 97 °C for the first, 133 to 134 °C for the second.

`O=C(Cc1ccccn1)Nc1ccc(CCCc2ccccc2OCc2ccccc2)cc1` and `CN(C)CCCNC(=O)c1ccccc1-c1nnc(CSCCOc2ccccc2)o1` cannot be ordered by melting point: 61 to 62 °C for the first, 60 to 65 °C for the second.

First: C=CCC(C(O)=Nc1cc(Cl)cc(Cl)c1)C(C)C(=O)O (stereo not given)
Second: CCCSc1ncc(CC(NC(C)=O)C(=O)O)n1Cc1ccccc1Cl (stereo not given)
The melting point of the first is lower: 131 °C for the first, 182 to 184 °C for the second.

First: CNc1ccnc(C2=Cc3ccccc3CC2)c1
Second: CNc1nc(C(C)c2ccc(-c3ccccc3)c(F)c2)co1 (stereo not given)
The melting point of the first is lower: 106 to 107 °C for the first, 134 to 135 °C for the second.

First: CN(C)CC1CCc2c(c3cc(C(N)=O)ccc3n2C)C1=O (stereo not given)
Second: COC1C=C(C)C(=O)CC(C)(C)C1OC(=O)c1ccc([N+](=O)[O-])c([N+](=O)[O-])c1 (stereo not given)
The melting point of the first is higher: 171 to 173 °C for the first, 103 to 104 °C for the second.

First: BrCc1ccc(-c2ccc(CBr)cn2)nc1
Second: COc1ccc(C(=O)CCc2cccnc2)cc1
The melting point of the first is higher: 188 °C for the first, 76 to 78 °C for the second.

`Oc1c(Cl)cc(-c2cnn3c(O)ncnc23)cc1Cl` and `O=[N+]([O-])c1cc2nc(Cl)c(Cl)nc2cc1Sc1ncc[nH]1` cannot be ordered by melting point: greater than 300 °C for the first, greater than 300 °C for the second.

First: Cc1ccc(-c2cc(OCC(=O)N3CCOCC3)c3c(Cl)cccc3n2)cc1
Second: COc1cc(OCCCN2CCOCC2)c(C=CC(=O)c2ccc(S(N)(=O)=O)cc2)cc1-c1cccs1
The melting point of the first is lower: 170 °C for the first, 193 to 196 °C for the second.

First: Cc1cc(C2OCCO2)ncc1[N+](=O)[O-]
Second: CC(C)CNc1c([N+](=O)[O-])cnc2cc(Br)cnc12
The melting point of the first is lower: 77 to 79 °C for the first, 114 to 115 °C for the second.

Compared with `CC(C)CCSC1C(O)C(CO)OC1n1ccc(=O)[nH]c1=O` (stereo not given), `COc1cc2c(c(OC(C)=O)c1)C1CCC3(C)C(=O)C(O)CC3C1CC2` (stereo not given) is higher in melting point: 66 to 67 °C for the first, 228 to 231 °C for the second.

Compared with `C#CCn1c2ccccc2c2cc(Br)ccc21`, `Cc1cnc(C2CCCCC2)n2c1c(CCBr)c1ccccc12` is lower in melting point: 142 to 149 °C for the first, 137 to 139 °C for the second.

Compared with `Cn1cccc1-c1oncc1C(=O)Nc1ccccc1`, `Cn1cccc1C(=O)c1cc([N+](=O)[O-])ccc1Cl` is higher in melting point: 100 to 103 °C for the first, 108 to 110 °C for the second.

First: CCNC(=O)C(=O)[C@H](Cc1ccccc1)NC(=O)[C@H](CC(C)C)NC(=O)OCCOC
Second: COC(=O)C1=C(C)NC(C)=C(C(=O)NCCOC(=O)N2CCC3(CC2)CC(=O)N(OC)C3=O)C1c1cccc([N+](=O)[O-])c1 (stereo not given)
The melting point of the first is higher: 138 °C for the first, 107 to 113 °C for the second.

`O=C1NC(=O)c2cc(Nc3ccc(F)cc3)c(Nc3ccc(F)cc3)cc21` and `CC(=O)NC1CCn2c1nc1cc(NC(=O)c3cc4cc(F)ccc4n3Cc3cccc(F)c3)cnc12` (stereo not given) cannot be ordered by melting point: greater than 220 °C for the first, 282 to 283 °C for the second.

Compared with `CN1CC(CCCl)Sc2ncccc2C1=O` (stereo not given), `NC(=S)c1ncccc1O` is higher in melting point: 97 to 100 °C for the first, 150 to 151 °C for the second.

First: N#Cc1cc(C(=O)NNC(=O)c2occ(-c3ccccc3)c2-c2ccccc2)ccc1O
Second: Cc1ccc(C(=O)Nc2c(NC(=O)CN3CCN(c4ccccc4F)CC3)ccc3c2C(=O)c2ccccc2C3=O)cc1
The melting point of the first is lower: 178 to 179 °C for the first, 228 to 229 °C for the second.

First: CCCCOc1ccc(S(=O)(=O)C2(C(=O)NO)CCN(Cc3ccc(OCCN4CCCCC4)cc3)CC2)cc1
Second: O=C(COc1ccc([N+](=O)[O-])cc1)OCCOC(=O)COc1ccc([N+](=O)[O-])cc1
The melting point of the first is higher: 155 °C for the first, 118 to 121 °C for the second.

First: O=Cc1cccc([N+](=O)[O-])c1F
Second: CCOc1cc([N+](=O)[O-])ccc1NC(C)=O
The melting point of the first is lower: 46 to 47 °C for the first, 164 to 165 °C for the second.

First: Cc1cc2c(cc1Sc1ccc(C=O)cc1)C(C)(C)CCC2(C)C
Second: COC(=O)c1ccc(C#CC(=O)c2ccc3c(c2)CCCC3(C)C)cc1O
The melting point of the first is higher: 98 to 99 °C for the first, 89 to 90 °C for the second.

First: O=C1OC2CCSC2Cn2cccc21 (stereo not given)
Second: NC1C2CN(C(=O)Nc3ccc(F)cc3)CC12 (stereo not given)
The melting point of the first is higher: 167 to 168 °C for the first, 150 °C for the second.

First: COCC(O)c1nc2c(C(F)(F)F)cccc2c(O)c1C(=O)Nc1nccs1 (stereo not given)
Second: CCC(CC)(CC(=O)Nc1cccc(OCc2ccc3ccc(C(F)(F)F)cc3n2)c1)C(=O)O
The melting point of the first is higher: 216 to 218 °C for the first, 85 to 86 °C for the second.

First: Oc1cc(O)c2c(c1)Oc1ccc(Br)cc1CC2
Second: COc1ccc(CCc2cc3cc(C#N)ccc3o2)c(C(=O)O)c1
The melting point of the first is lower: 174 to 176 °C for the first, 179 to 182 °C for the second.

Compared with `CCOC(=O)C(C)OCc1cc2nc(Cl)ccc2n1S(=O)(=O)c1ccc2nc(N)sc2c1` (stereo not given), `COc1ccccc1OC(=O)c1ncn2c1[C@@H]1CCCN1C(=O)c1c(Cl)cccc1-2` is higher in melting point: 86 to 88 °C for the first, 205 to 206 °C for the second.

First: COc1ccc(OC)c2c(Nc3cccc(N(C)C)c3)c(C#N)cnc12
Second: COc1ccccc1-c1cccc(-n2cnc(-c3nc(C)no3)c2)c1
The melting point of the first is higher: 103 to 105 °C for the first, 97.1 to 101 °C for the second.

First: N#Cc1ccc(-c2cnc3[nH]c(=O)n(CC4CCCCC4)c3n2)cc1
Second: CSc1nccc(Oc2ccc(NC(=O)c3cc(F)cc(OC4CCCC4)c3)c3ccccc23)n1
The melting point of the first is higher: 255 to 257 °C for the first, 115 to 116 °C for the second.

First: CS(=O)(=O)Nc1cccc(S(=O)(=O)N2CCOc3c(N4CCNCC4)cccc32)c1
Second: Cc1ccccc1S(=O)(=O)NC1CCc2sc(C3=NNC(=O)CC3)cc2C1 (stereo not given)
The melting point of the first is lower: 158 to 164 °C for the first, 204 to 206 °C for the second.

Compared with `CC(C)N=CN1c2ccccc2Cc2ccccc21`, `O=C(c1cccs1)C(Br)c1ccc(F)cc1` (stereo not given) is higher in melting point: 150 °C for the first, 182 to 189 °C for the second.

Compared with `Cc1nnc2n1-c1ccc(C#CCN3C(=O)C4CC=CCC4C3=O)cc1C(c1ccccc1F)=NC2` (stereo not given), `CCCCCOC(=O)Cc1nc(-c2ccc(F)cc2)oc1-c1ccsc1` is lower in melting point: 259 to 261 °C for the first, 78 to 80 °C for the second.

First: CNC(=O)Oc1c(C)cc(C)c2c1CC(C)C2(C)C (stereo not given)
Second: Cc1cc(C)nc(-n2cnc(N)n2)n1
The melting point of the first is lower: 130 to 131 °C for the first, 235 to 238 °C for the second.

First: CCCN1CCN(c2ccc(C(C)=O)cc2)CC1
Second: CC(C)OCCCNc1c([N+](=O)[O-])cnc2cccnc12
The melting point of the first is higher: 68 to 70 °C for the first, 62.5 to 63.5 °C for the second.
